Measurements published in ChEMBL document CHEMBL1145933, “Novel sst(4)-selective somatostatin (SRIF) agonists. 1. Lead identification using a betide scan” (J Med Chem, 2003).
Where a SMILES comes first, the peptide text is derived from it. Bridges are numbered along the chain shown (N, C = ends). [ ]: non-standard residue; d: D form.

Legend:
[1] = molecular target: Somatostatin receptor type 3 (Homo sapiens, UniProt P32745); assay: Binding affinity towards human Somatostatin receptor type 3 using 125I-[Leu,DTrp,Tyr]SRIF-28 as radioligand
Sequence of Somatostatin receptor type 3 (P32745 whole entry): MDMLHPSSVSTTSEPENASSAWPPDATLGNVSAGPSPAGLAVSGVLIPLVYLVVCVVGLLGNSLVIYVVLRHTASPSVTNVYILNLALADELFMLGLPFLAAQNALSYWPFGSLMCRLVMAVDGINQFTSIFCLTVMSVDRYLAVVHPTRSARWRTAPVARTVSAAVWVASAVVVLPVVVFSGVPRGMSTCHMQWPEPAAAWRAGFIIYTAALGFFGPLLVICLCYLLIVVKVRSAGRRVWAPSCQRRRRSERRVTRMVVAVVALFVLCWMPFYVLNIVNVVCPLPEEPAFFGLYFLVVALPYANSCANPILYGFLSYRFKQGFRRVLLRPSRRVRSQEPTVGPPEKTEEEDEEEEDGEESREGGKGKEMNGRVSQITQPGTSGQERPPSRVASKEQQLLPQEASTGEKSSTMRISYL

[2] = molecular target: Somatostatin receptor type 1 (Homo sapiens, UniProt P30872); assay: Binding affinity towards human Somatostatin receptor type 1 using 125I-[Leu,DTrp,Tyr]SRIF-28 as radioligand
Sequence of Somatostatin receptor type 1 (P30872 whole entry): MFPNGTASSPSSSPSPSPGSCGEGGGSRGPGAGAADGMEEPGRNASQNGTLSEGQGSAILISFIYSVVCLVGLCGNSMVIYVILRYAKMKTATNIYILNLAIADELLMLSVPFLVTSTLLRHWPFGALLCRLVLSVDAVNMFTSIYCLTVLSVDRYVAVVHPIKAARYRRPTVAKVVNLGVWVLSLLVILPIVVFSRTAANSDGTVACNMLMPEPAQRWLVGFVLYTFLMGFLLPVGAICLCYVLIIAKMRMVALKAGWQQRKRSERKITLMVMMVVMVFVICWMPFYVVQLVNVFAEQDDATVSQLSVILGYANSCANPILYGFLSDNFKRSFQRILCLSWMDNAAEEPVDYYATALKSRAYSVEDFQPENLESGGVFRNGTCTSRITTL

[3] = molecular target: Somatostatin receptor type 5 (Homo sapiens, UniProt P35346); assay: Binding affinity towards human Somatostatin receptor type 5 using 125I-[Leu,DTrp,Tyr]SRIF-28 as radioligand
Sequence of Somatostatin receptor type 5 (P35346 whole entry): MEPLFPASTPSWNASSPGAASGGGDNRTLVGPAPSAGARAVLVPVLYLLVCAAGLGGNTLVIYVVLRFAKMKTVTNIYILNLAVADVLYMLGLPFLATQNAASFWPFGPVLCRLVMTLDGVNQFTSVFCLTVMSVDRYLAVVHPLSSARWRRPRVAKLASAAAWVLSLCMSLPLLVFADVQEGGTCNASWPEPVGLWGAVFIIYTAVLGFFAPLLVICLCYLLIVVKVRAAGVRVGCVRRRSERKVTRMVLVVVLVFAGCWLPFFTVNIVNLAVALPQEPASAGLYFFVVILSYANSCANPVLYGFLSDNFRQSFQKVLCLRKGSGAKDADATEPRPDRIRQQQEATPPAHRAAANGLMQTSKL

[4] = molecular target: Somatostatin receptor type 2 (Homo sapiens, UniProt P30874); assay: Binding affinity towards human Somatostatin receptor type 2 using 125I-[Leu,DTrp,Tyr]SRIF-28 as radioligand
Sequence of Somatostatin receptor type 2 (P30874 whole entry): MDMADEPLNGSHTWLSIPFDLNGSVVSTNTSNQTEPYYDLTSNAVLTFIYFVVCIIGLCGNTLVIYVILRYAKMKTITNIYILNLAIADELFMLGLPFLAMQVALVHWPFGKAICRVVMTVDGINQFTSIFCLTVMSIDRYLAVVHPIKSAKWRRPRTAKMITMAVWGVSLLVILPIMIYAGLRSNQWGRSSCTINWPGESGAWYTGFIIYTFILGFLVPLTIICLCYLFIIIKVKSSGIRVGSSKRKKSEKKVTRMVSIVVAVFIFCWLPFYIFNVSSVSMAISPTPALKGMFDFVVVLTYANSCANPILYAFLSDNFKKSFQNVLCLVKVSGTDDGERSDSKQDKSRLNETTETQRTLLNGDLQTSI

[5] = molecular target: Somatostatin receptor type 4 (Homo sapiens, UniProt P31391); assay: Binding affinity towards human Somatostatin receptor type 4 using 125I-[Leu,DTrp,Tyr]SRIF-28 as radioligand
Sequence of Somatostatin receptor type 4 (P31391 whole entry): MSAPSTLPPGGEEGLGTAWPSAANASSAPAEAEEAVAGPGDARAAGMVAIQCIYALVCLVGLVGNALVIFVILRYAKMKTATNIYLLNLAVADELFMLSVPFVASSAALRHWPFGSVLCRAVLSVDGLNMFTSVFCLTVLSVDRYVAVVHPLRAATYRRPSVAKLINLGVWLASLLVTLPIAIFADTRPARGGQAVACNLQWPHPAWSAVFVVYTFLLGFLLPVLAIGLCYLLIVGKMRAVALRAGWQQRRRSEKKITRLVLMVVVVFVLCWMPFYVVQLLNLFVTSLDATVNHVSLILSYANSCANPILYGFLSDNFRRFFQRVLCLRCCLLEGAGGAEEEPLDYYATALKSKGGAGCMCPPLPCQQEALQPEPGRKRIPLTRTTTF

| SMILES | IC50 [1] [µM] | IC50 [2] [µM] | IC50 [3] [µM] | IC50 [4] [µM] | IC50 [5] [µM] |
| --- | --- | --- | --- | --- | --- |
| C[C@@H](O)[C@@H]1NC(=O)[C@H](CCCCN)NC(=O)[C@@H](Cc2c[nH]c3ccccc23)NC(=O)[C@H](Cc2ccccc2)NC(=O)[C@H](N(C)C(=O)c2ccccc2)NC(=O)[C@@H](N)CSSC[C@@H](C(=O)O)NC(=O)[C@H](Cc2ccccc2)NC1=O (stereo in doubt; 5) | – | > 10 | – | > 1 | > 1 |
| C[C@@H](O)[C@@H]1NC(=O)[C@H](CCCCN)NC(=O)[C@H](Cc2c[nH]c3ccccc23)NC(=O)[C@H](Cc2ccccc2)NC(=O)[C@H](Cc2ccccc2)NC(=O)[C@@H](N)CSSC[C@@H](C(=O)O)NC(=O)[C@H](Cc2ccccc2)NC1=O (H-CFFWKTFC-OH; disulfide 1-8) | – | 0.027 | 0.046 | 0.041 | 0.0018 |
| CN(C(=O)CO)[C@H]1NC(=O)[C@H](CCCCN)NC(=O)[C@@H](Cc2c[nH]c3ccccc23)NC(=O)[C@H](Cc2ccccc2)NC(=O)[C@H](Cc2ccccc2)NC(=O)[C@@H](N)CSSC[C@@H](C(=O)O)NC(=O)[C@H](Cc2ccccc2)NC1=O (stereo in doubt; 20) | > 1 | 0.045 | 0.211 | > 1 | 0.0065 |
| C[C@@H](O)[C@@H]1NC(=O)[C@@H](NC(=O)CCN)NC(=O)[C@@H](Cc2c[nH]c3ccccc23)NC(=O)[C@H](Cc2ccccc2)NC(=O)[C@H](Cc2ccccc2)NC(=O)[C@@H](N)CSSC[C@@H](C(=O)O)NC(=O)[C@H](Cc2ccccc2)NC1=O (stereo in doubt; 16) | > 1 | > 10 | > 10 | > 1 | > 10 |
| C[C@@H](O)[C@@H]1NC(=O)[C@H](CCCCN)NC(=O)[C@@H](Cc2c[nH]c3ccccc23)NC(=O)[C@H](N(C)C(=O)c2ccccc2)NC(=O)[C@H](Cc2ccccc2)NC(=O)[C@H](N)CSSC[C@@H](C(=O)O)NC(=O)[C@H](Cc2ccccc2)NC1=O (stereo in doubt; 9) | > 1 | – | – | – | 0.153 |
| C[C@@H](O)[C@@H]1NC(=O)[C@H](CCCCN)NC(=O)[C@@H](Cc2c[nH]c3ccccc23)NC(=O)[C@H](Cc2ccccc2)NC(=O)[C@H](Cc2ccccc2)NC(=O)[C@@H](N)CSSC[C@@H](C(=O)O)NC(=O)[C@@H](N(C)C(=O)c2ccccc2)NC1=O | > 1 | > 10 | > 1 | > 1 | 0.08 |
| C[C@@H](O)[C@@H]1NC(=O)[C@H](CCCCN)NC(=O)[C@@H](Cc2c[nH]c3ccccc23)NC(=O)[C@H](Cc2ccccc2)NC(=O)[C@H](N(C)C(=O)c2ccccc2)NC(=O)[C@@H](N)CSSC[C@@H](C(=O)O)NC(=O)[C@H](Cc2ccccc2)NC1=O (stereo in doubt; 4) | > 10 | 0.667 | > 1 | 0.374 | 0.014 |
| C[C@@H](O)[C@@H]1NC(=O)[C@H](CCCCN)NC(=O)[C@@H](Cc2c[nH]c3ccccc23)NC(=O)[C@H](Cc2ccccc2)NC(=O)[C@H](Cc2ccccc2)NC(=O)[C@@H](N)CSSC[C@@H](C(=O)O)NC(=O)[C@H](Cc2ccccc2)NC1=O (H-CFF[dW]KTFC-OH; disulfide 1-8) | – | 0.0053 | 0.014 | 0.13 | 0.0007 |

Second part, the compound after the results:

| IC50 [1] [µM] | IC50 [2] [µM] | IC50 [3] [µM] | IC50 [4] [µM] | IC50 [5] [µM] | SMILES |
| --- | --- | --- | --- | --- | --- |
| > 1 | > 1 | > 10 | > 1 | – | COC(=O)[C@H](CCCN=C(N)N)NC(=O)CCCc1c(-c2ccccc2)[nH]c2c(F)cc(F)cc12 |
| 0.447 | – | 0.768 | 0.46 | 0.0052 | C[C@@H](O)[C@@H]1NC(=O)[C@H](CCCCN)NC(=O)[C@@H](Cc2c[nH]c3ccccc23)NC(=O)[C@H](N(C)C(=O)c2ccccc2)NC(=O)[C@H](Cc2ccccc2)NC(=O)[C@H](N)CSSC[C@@H](C(=O)O)NC(=O)[C@H](Cc2ccccc2)NC1=O (stereo in doubt; 8) |
| > 1 | > 10 | > 10 | > 1 | > 1 | C[C@@H](O)[C@@H]1NC(=O)[C@@H](NC(=O)CCN)NC(=O)[C@@H](Cc2c[nH]c3ccccc23)NC(=O)[C@H](Cc2ccccc2)NC(=O)[C@H](Cc2ccccc2)NC(=O)[C@@H](N)CSSC[C@@H](C(=O)O)NC(=O)[C@H](Cc2ccccc2)NC1=O (stereo in doubt; 17) |
| > 1 | > 1 | > 1 | > 1 | > 1 | C[C@@H](O)[C@@H]1NC(=O)[C@H](N(C)C(=O)CCN)NC(=O)[C@@H](Cc2c[nH]c3ccccc23)NC(=O)[C@H](Cc2ccccc2)NC(=O)[C@H](Cc2ccccc2)NC(=O)[C@@H](N)CSSC[C@@H](C(=O)O)NC(=O)[C@H](Cc2ccccc2)NC1=O |
| > 1 | 0.86 | 0.389 | > 1 | 0.038 | CN(C(=O)CO)[C@H]1NC(=O)[C@H](CCCCN)NC(=O)[C@@H](Cc2c[nH]c3ccccc23)NC(=O)[C@H](Cc2ccccc2)NC(=O)[C@H](Cc2ccccc2)NC(=O)[C@@H](N)CSSC[C@@H](C(=O)O)NC(=O)[C@H](Cc2ccccc2)NC1=O (stereo in doubt; 21) |
| 0.136 | – | – | – | 0.031 | C[C@@H](O)[C@@H]1NC(=O)[C@H](CCCCN)NC(=O)[C@@H](Cc2c[nH]c3ccccc23)NC(=O)[C@H](N(C)C(=O)c2ccccc2)NC(=O)[C@H](Cc2ccccc2)NC(=O)[C@H](N)CSSC[C@@H](C(=O)O)NC(=O)[C@H](Cc2ccccc2)NC1=O (stereo in doubt; 11) |
| > 1 | > 10 | > 1 | > 10 | 0.429 | C[C@@H](O)[C@@H]1NC(=O)[C@@H](N(C)C(=O)CCN)NC(=O)[C@@H](Cc2c[nH]c3ccccc23)NC(=O)[C@H](Cc2ccccc2)NC(=O)[C@H](Cc2ccccc2)NC(=O)[C@@H](N)CSSC[C@@H](C(=O)O)NC(=O)[C@H](Cc2ccccc2)NC1=O |
| 0.235 | > 10 | 0.22 | 0.455 | 0.0069 | C[C@@H](O)[C@@H]1NC(=O)[C@H](CCCCN)NC(=O)[C@@H](Cc2c[nH]c3ccccc23)NC(=O)[C@H](Cc2ccccc2)NC(=O)[C@H](Cc2ccccc2)NC(=O)[C@@H](N)CSSC[C@@H](C(=O)O)NC(=O)[C@H](N(C)C(=O)c2ccccc2)NC1=O |
| 0.725 | > 10 | > 1 | > 1 | 0.133 | C[C@@H](O)[C@@H]1NC(=O)[C@H](CCCCN)NC(=O)[C@@H](Cc2c[nH]c3ccccc23)NC(=O)[C@H](N(C)C(=O)c2ccccc2)NC(=O)[C@H](Cc2ccccc2)NC(=O)[C@H](N)CSSC[C@@H](C(=O)O)NC(=O)[C@H](Cc2ccccc2)NC1=O (stereo in doubt; 7) |
| 0.382 | > 1 | 0.46 | 0.533 | 0.0034 | C[C@@H](O)[C@@H]1NC(=O)[C@H](CCCCN)NC(=O)[C@@H](Cc2c[nH]c3ccccc23)NC(=O)[C@H](N(C)C(=O)c2ccccc2)NC(=O)[C@H](Cc2ccccc2)NC(=O)[C@H](N)CSSC[C@@H](C(=O)O)NC(=O)[C@H](Cc2ccccc2)NC1=O (stereo in doubt; 10) |
| 0.403 | > 10 | > 1 | > 1 | 0.0054 | C[C@@H](O)[C@@H]1NC(=O)[C@H](CCCCN)NC(=O)[C@H](Cc2c[nH]c3ccccc23)NC(=O)[C@H](N(C)C(=O)c2ccccc2)NC(=O)[C@H](Cc2ccccc2)NC(=O)[C@@H](N)CSSC[C@@H](C(=O)O)NC(=O)[C@H](Cc2ccccc2)NC1=O |
